Data from ChEMBL document CHEMBL4813911 (J Med Chem, 2020).
One block for each compound: values may come before it.

Key:
[1] = target: T1, Lysine-specific histone demethylase 2 (Homo sapiens, UniProt Q8NB78); assay: Inhibition of LSD2 (unknown origin) using Lys4-dimethylated H3 (1-20) peptide as substrate incubated for 30 mins by peroxidase-coupled assay
T1 sequence (Q8NB78 whole entry): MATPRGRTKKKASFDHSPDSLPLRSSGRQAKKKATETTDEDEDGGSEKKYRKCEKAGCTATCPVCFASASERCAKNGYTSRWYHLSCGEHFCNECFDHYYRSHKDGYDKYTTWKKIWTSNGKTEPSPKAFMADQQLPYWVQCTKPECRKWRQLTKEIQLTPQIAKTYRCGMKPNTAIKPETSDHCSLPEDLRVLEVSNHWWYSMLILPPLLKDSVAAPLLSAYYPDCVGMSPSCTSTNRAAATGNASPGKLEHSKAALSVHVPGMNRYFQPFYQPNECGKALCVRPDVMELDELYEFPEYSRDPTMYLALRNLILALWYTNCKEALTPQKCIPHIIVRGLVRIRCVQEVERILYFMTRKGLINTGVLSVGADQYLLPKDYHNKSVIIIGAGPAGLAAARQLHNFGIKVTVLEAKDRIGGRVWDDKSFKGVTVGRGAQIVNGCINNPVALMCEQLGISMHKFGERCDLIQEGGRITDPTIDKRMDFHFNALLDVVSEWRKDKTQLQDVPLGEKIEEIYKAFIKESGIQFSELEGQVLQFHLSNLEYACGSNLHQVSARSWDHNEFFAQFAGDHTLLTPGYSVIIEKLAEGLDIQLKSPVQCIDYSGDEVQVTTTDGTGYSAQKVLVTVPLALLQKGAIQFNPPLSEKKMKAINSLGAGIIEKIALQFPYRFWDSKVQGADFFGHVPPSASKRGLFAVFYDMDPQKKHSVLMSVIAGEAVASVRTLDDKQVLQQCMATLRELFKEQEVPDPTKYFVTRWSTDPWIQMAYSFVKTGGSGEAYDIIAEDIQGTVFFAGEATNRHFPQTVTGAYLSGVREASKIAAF

[2] = target: T2, Amine oxidase [flavin-containing] A (Homo sapiens, UniProt P21397); assay: Inhibition of human MAO-A expressed in baculovirus infected BTI insect cells using tyramine as substrate incubated for 30 mins by peroxidase-coupled assay
T2 sequence (P21397 whole entry): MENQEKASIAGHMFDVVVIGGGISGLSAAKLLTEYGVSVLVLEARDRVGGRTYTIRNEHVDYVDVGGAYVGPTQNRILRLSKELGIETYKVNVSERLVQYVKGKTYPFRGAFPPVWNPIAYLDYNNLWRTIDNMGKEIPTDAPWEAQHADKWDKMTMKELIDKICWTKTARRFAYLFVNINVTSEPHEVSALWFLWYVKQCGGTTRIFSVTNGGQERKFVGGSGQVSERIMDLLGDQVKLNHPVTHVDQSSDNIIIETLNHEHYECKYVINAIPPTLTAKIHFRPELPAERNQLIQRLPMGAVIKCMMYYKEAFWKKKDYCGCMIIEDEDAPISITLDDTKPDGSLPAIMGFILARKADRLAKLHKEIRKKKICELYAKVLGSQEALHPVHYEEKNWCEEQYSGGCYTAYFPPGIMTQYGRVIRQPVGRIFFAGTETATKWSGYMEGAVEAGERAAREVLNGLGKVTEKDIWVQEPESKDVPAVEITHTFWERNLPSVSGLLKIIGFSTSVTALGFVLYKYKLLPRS

[3] = target: T3, Amine oxidase [flavin-containing] B (Homo sapiens, UniProt P27338); assay: biochemical
T3 sequence (P27338 whole entry): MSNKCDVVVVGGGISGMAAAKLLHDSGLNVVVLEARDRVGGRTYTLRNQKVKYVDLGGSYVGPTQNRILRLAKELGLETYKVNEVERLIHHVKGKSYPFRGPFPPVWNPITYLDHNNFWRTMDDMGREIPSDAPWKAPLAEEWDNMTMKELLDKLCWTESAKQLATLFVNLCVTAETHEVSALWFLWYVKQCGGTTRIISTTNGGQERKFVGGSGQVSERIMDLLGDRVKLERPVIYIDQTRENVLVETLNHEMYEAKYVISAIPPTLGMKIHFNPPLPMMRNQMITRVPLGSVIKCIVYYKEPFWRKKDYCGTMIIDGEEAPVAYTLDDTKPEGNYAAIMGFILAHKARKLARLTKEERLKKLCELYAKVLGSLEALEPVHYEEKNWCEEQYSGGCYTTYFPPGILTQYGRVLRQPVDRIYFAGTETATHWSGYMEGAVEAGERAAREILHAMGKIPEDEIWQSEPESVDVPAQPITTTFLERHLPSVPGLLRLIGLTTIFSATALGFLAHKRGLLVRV

[4] = test system: HeLa; assay: Antiproliferative activity against human HeLa cells after 48 hrs by MTT assay; assay type: functional
[5] = test system: HCT-116; assay: Antiproliferative activity against human HCT116 cells after 48 hrs by MTT assay; assay type: functional
[6] = test system: PC-3; assay: Antiproliferative activity against human PC-3 cells after 48 hrs by MTT assay; assay type: functional
[7] = test system: KYSE-150 cell line; assay: Antiproliferative activity against human KYSE150 cells after 48 hrs by MTT assay; assay type: functional
[8] = test system: SH-SY5Y; assay: Antiproliferative activity against human SH-SY5Y cells after 48 hrs by MTT assay; assay type: functional
[9] = target: T2, Amine oxidase [flavin-containing] A; assay: Inhibition of human MAO-A expressed in expressed in baculovirus infected BTI insect cells using tyramine as substrate by peroxidase-coupled method
[10] = target: T3, Amine oxidase [flavin-containing] B; assay: biochemical; remark: listed apart in the source
[11] = target: T2, Amine oxidase [flavin-containing] A; assay: biochemical
[12] = target: T2, Amine oxidase [flavin-containing] A
[13] = target: T2, Amine oxidase [flavin-containing] A; assay: Inhibition of MAO-A (unknown origin) preincubated for 20 mins using 5-hydroxytryptamine as substrate followed by substrate addition and measured after 60 mins
[14] = target: T3, Amine oxidase [flavin-containing] B; assay: Inhibition of MAO-B (unknown origin) using benzylamine as substrate preincubated for 20 mins followed by substrate addition and measured after 60 mins
[15] = test system: MV4-11; assay: Antiproliferative activity against human MV4-11 cells incubated for 6 days by MTS assay; assay type: functional, cell-based; conditions: MV4-11, 144 h
[16] = target: LSD1/CoREST complex (Homo sapiens, UniProt O60341); assay: Inhibition of LSD1/FLAG-tagged CoREST (unknown origin) expressed in HEK293F cells using diMeK4H3(1 to 21) as substrate preincubated for 5 mins followed by substrate addition measured for 5 mins by horseradish peroxidase-coupled assay
[17] = Inhibition of HDAC1/FLAG-tagged CoREST (unknown origin) expressed in HEK293F cells using p53 (379 to 382 residues) (RHKK(Ac) as substrate incubated for 30 mins by fluorescence method; parameters: species or system Homo sapiens
[18] = Antiproliferative activity against human SCCIC1 cells after 72 hrs by [3H] thymidine incorporation assay; assay type: functional, cell-based
[19] = Antiproliferative activity against human MET-1 cells after 72 hrs by [3H] thymidine incorporation assay; assay type: functional, cell-based
[20] = target: Lysine-specific histone demethylase 1A (Homo sapiens, UniProt O60341); assay: Inhibition of human LSD1 expressed in Escherichia coli BL21 (DE3) cells using (ARTK(diMe)QTARKSTGGKAPRKQLA peptide as substrate incubated for 30 mins by HRP reagent based fluorescence method

GI50 [4]: 6 µM
GI50 [5]: 6 µM
GI50 [6]: 6 µM
GI50 [8]: 6 µM
Structure (SMILES): NC1CC1c1cccc(OCC[C@H](NC(=O)c2ccccc2)C(=O)NCc2ccccc2)c1 (stereo partly specified)
GI50 [7]: 6 µM

GI50 [4]: 35 µM
GI50 [8]: 17 µM
Structure (SMILES): O=C(N[C@@H](CCCCNC1CC1c1ccccc1)C(=O)NCc1ccccc1)c1ccccc1 (stereo partly specified)

GI50 [4]: 4.1 µM
GI50 [8]: 2.4 µM
Structure (SMILES): O=C(N[C@@H](CCCCNC1CC1c1ccccc1)C(=O)NCc1cccc(C(F)(F)F)c1)c1ccc(-c2ccccc2)cc1 (stereo partly specified)

GI50 [4]: 10 µM
GI50 [8]: > 3.3 µM
IC50 [11]: 87 µM
Structure (SMILES): O=C(N[C@@H](CCCCNC1CC1c1ccccc1)C(=O)NCc1ccccc1)c1ccc(-c2ccccc2)cc1 (stereo partly specified)

IC50 [12]: 0.51 µM
Structure (SMILES): CN1CCN(C(=O)CN[C@@H]2C[C@H]2c2ccc(OCc3ccccc3)cc2)CC1

IC50 [16]: 1.8 µM
IC50 [17]: 0.23 µM
Structure (SMILES): Nc1ccccc1NC(=O)c1ccc(CCCC(=O)Nc2ccc(C3CC3N)cc2)cc1 (stereo unspecified)
IC50 [18]: 0.041 µM
IC50 [19]: 0.006 µM

Further lines, the compound ahead of its results:

Structure (SMILES): NC1CC1c1cc(F)cc(F)c1OCc1ccccc1 (stereo unspecified)
Ki [1]: > 250 µM
Ki [2]: 71 µM
Ki [3]: 33 µM

Structure (SMILES): NC1CC1c1c(F)c(F)c(F)c(F)c1F (stereo unspecified)
Ki [9]: 270 µM
Ki [10]: 8.3 µM

Structure (SMILES): NC1CC1c1cccc(F)c1OCc1ccccc1 (stereo unspecified)
Ki [9]: 64 µM
Ki [10]: 42 µM

Structure (SMILES): CCN(CC)S(=O)(=O)c1ccc([C@H]2C[C@@H]2NCc2ccccc2)cc1
IC50 [13]: 0.525 µM
IC50 [14]: 0.702 µM
IC50 [15]: 15.4 µM

Structure (SMILES): CCN(CC)S(=O)(=O)c1ccc([C@H]2C[C@@H]2N)cc1
IC50 [20]: 0.123 µM
IC50 [13]: 0.806 µM
IC50 [14]: 0.898 µM
IC50 [15]: > 30 µM
